The format of series [1] is physicochemical. Put shortly:
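UV–vis pH-metric titrations at 25.0 ± 0.1 °C, I = 0.10 M KCl, 30% (v/v) DMSO/H2O under argon; ligand 20 μM, pH 2.0–12.5, alone or with 1 or 0.5 equiv. Cu(II). Spectra 200–800 nm, 2 cm path; pKa, overall stability constants (β) and species spectra fitted with PSEQUAD.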

The next series has as its system MCF-7. The series can be described thus: MTT cytotoxicity assay. The format is cell-based, human. The conditions noted are these: Homo sapiens, MCF7; MCF-7, MTT, 24 h incubation time. Put shortly: (§1)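 Cells were exposed 24 h to 0–20 µM (2.5, 5, 10, 15, 20 µM) Cu(II) complexes, ligands or metal salts (equimolar ligand–CuCl2), then 0.5 mg/mL MTT for 1 h at 37 °C. Formazan was dissolved in DMSO and read at 570 nm; viability is relative to untreated control as 100%.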
(In general: Tetrazolium dyes change colour on reduction, which living cells bring about.)

The test system of another series is MCF-7 KCR. Put plainly: MTT cytotoxicity assay. Type of series: cell-based, human. The conditions noted are these: Homo sapiens, MCF7, 24 h incubation time. In outline:
as §1

The next series relates to DU-145. Put plainly: MTT cytotoxicity assay. As to conditions: Homo sapiens; DU-145, MTT, 24 h incubation time. The format is cell-based, human. In outline:
as §1

In a further series the test system is A549. The series can be described thus: MTT cytotoxicity assay. As to conditions: Homo sapiens, 24 h incubation time. The format is cell-based, human. Put shortly: as §1
Setting [2] is: Cu(II) complex of the named ligand, 30% (v/v) DMSO/H2O, T = 25.0 °C, I = 0.1 M (KCl).

This is an account of results in publication PMC9822434, “Estradiol-Based Salicylaldehyde (Thio)Semicarbazones and Their Copper Complexes with Anticancer, Antibacterial and Antioxidant Activities” (Molecules, 2022).

`C[C@]12CC[C@@H]3c4cc(C=NNC(N)=S)c(O)cc4CC[C@H]3[C@@H]1CCC2O` (stereo partly shown) [estradiol-TSC, 2-((3,17 Dihydroxy-estra-1,3,5(10)-triene-2-yl)methylene)Hydrazine-1-carbothioamide]: the “pKa [CuL]+” value in series [1] is given as 3.95. Moreover, in series [1] (setting [2]), the “logβ [CuLH−1]” value came out at 9.84 ± 0.03. Also, the “logβ [CuL]+” value in series [1] (setting [2]) is given as 13.79 ± 0.03. The pCu5.0 in series [1] (calculated at pH 5.0, cCu(II) = 20 µM, cligand = 20 µM) is 7.8. The pCu6.0 in series [1] (estimated at pH 6.0, cCu(II) = 20 µM, cligand = 20 µM) was 9.3. Also, in series [1] (estimated at pH 7.4, cCu(II) = 20 µM, cligand = 20 µM), the pCu7.4 is given as 12.1. The IC50 – broadly, the point on the concentration scale where inhibition reaches its midpoint – with MCF-7 is more than 20 µM; in the series with MCF-7 KCR, more than 20 µM; with DU-145, more than 20 µM; with A549, 20.5 ± 1.07 µM.
